From BigSolDB 2.1

O=c1cc(-c2ccccc2)oc2cc(O)cc(O)c12
solubility (mole fraction)
Details | 293.15 K | 298.15 K | 303.15 K | 308.15 K | 313.15 K | 318.15 K | 323.15 K
in ethanol | 0.00689 | 0.00749 | 0.0078 | 0.00928 | 0.0108 | 0.0121 | 0.0137
in water | 1.26e-05 | 1.86e-05 | 2.38e-05 | 3.53e-05 | 4.61e-05 | 6.5e-05 | 0.0001
